Results on four compounds are retold here after patent US20140363830A1, “COMPOUNDS THAT MODULATE HSP90 ACTIVITY AND METHODS FOR IDENTIFYING SAME” (SYNTA PHARMACEUTICALS CORP., priority 2006, published 2014).

The test system of data set [1] is Her2. Kind of data set: Degradation of Her2 in BT-474 cells (Western blot). It counts as cell-based, Human. The following applies: for Her2 degradation: overnight. As for the experimental part: Human high-Her2 breast carcinoma BT474 (HTB-20), SK-BR-3 (HTB-30) and MCF-7 breast carcinoma (HTB-22) from American Type Culture Collection, VA, USA were grown in Dulbecco's modified Eagle's medium with 4 mM L-glutamine and antibiotics (100 IU/ml penicillin and 100 ug/ml streptomycine; GibcoBRL). To obtain exponential cell growth, cells were trypsinized, counted and seeded at a cell density of 0.5×10^6 cells/ml regularly, every 3 days. All experiments were performed on day 1 after cell passage.
After treatment, each cytoplasmic sample was prepared from 1×10^6 cells by incubation of cell lysis buffer (#9803, cell Signaling Technology) on ice for 10 minutes. The resulting supernatant used as the cytosol fractions were dissolved with sample buffer for SDS-PAGE and run on a SDS-PAGE gel, blotted onto a nitrocellulose membrane by using semi-dry transfer. Non-specific binding to nitrocellulose was blocked with 5% skim milk in TBS with 0.5% Tween at room temperature for 1 hour, then probed with anti-Her2/ErB2 mAb (rabbit IgG, #2242, Cell Signaling) and anti-Tubulin (T9026, Sigma) as housekeeping control protein. HRP-conjugated goat antirabbit IgG (H+L) and HRP-conjugated horse antimouse IgG (H+L) were used as secondary Ab (#7074, #7076, Cell Signaling) and LumiGLO reagent, 20× Peroxide (#7003, Cell Signaling) was used for visualization.
(In western blotting, separated proteins are transferred to a membrane and probed.)

Data set [2] has as its system human tumor cell line MDA-MB-435S. In words: MDA-MB-435S nude mouse xenograft model. In kind it is in vivo. The following applies: 300 mg/kg body weight IP, 5 days per week for 3 weeks. As for the experimental part:
(§1) FBS was obtained from Sigma-Aldrich Corp. (St. Louis, Mo., USA), and all other reagents were obtained from Invitrogen Corp. (Carlsbad, Calif., USA). Approximately 4-5×10(6) cells that had been cryopreserved in liquid nitrogen were rapidly thawed at 37° C. and transferred to a 175 cm^2 tissue culture flask containing 50 ml of growth media and then incubated at 37° C. in a 5% CO2 incubator. The growth media was replaced every 2-3 days until the flask became 90% confluent, typically in 5-7 days. To passage and expand the cell line, a 90% confluent flask was washed with 10 ml of room temperature phosphate buffered saline (PBS) and the cells were disassociated by adding 5 ml 1× Trypsin-EDTA (Invitrogen) and incubating at 37° C. until the cells detached from the surface of the flask. To inactivate the trypsin, 5 ml of growth media was added and then the contents of the flask were centrifuged to pellet the cells. The supernatant was aspirated and the cell pellet was resuspended in 10 ml of growth media and the cell number determined using a hemocytometer. Approximately 1-3×10(6) cells per flask were seeded into 175 cm^2 flasks containing 50 ml of growth media and incubated at 37° C. in a 5% CO2 incubator. When the flasks reached 90% confluence, the above passaging process was repeated until sufficient cells had been obtained for implantation into mice.
Six to eight week old, female Crl:CD-1-nuBR (nude) mice were obtained from Charles River Laboratories (Wilmington, Mass., USA) Animals were housed 4-5/cage in micro-isolators, with a 12 hr/12 hr light/dark cycle, acclimated for at least 1 week prior to use and fed normal laboratory chow ad libitum. Studies were conducted on animals between 7 and 12 weeks of age at implantation. […] Tumor volumes (V) were calculated by caliper measurement of the width (W), length (L) and thickness (T) of tumors using the following formula: V=[…]×(L×W×T) Animals were randomized into treatment groups so that the average tumor volumes of each group were similar at the start of dosing. […]

For data set [3], the system named is c-kit. Kind of data set: FACS-based c-kit degradation assay in HEL92.1.7 cells. Conditions: about 18 h. In kind it is cell-based. As for the experimental part:
(§2) Two leukemia cell lines, HEL92.1.7 and Kasumi-1, were used for testing c-kit degradation induced by Hsp90 inhibitors of the invention. […] The cells were collected and centrifuged (SORVALL RT 6000D) at 1200 rpm for 5 min. The supernatants were discarded, and the cells were washed one time with 1×PBS. After centrifugation the cells were stained with FITC conjugated c-kit antibody (MBL International, Cat #K0105-4) in 100 ml 1×PBS at 4° C. for 1 h. The samples were read and analysized with FACSCalibur flow cytometer (Becton Dicknson).

Data set [4] relates to c-kit. In words: FACS-based c-kit degradation assay in Kasumi-1 cells. It counts as cell-based. Conditions: about 18 h. As for the experimental part: as §2
For data set [5], the system named is c-kit. Kind of data set: Western blot analysis of c-Kit in Kasumi-1 cells. It counts as cell-based. The text has this:
The results of the FACS analysis were confirmed with Western blot analysis (see FIG. 5). […] In contrast, 17-AAG had no effect of c-Kit protein levels.

Data set [6] has as its system RERF-LC-AI^IVP human lung tumor cells. Kind of data set: RERF-LC-AI^IVP nude mouse xenograft model. It counts as in vivo. As for the experimental part:
The human squamous non-small cell lung cancer cell line, RERF-LC-AI (RCB0444; S. Kyoizumi, et al., Cancer. Res. 45:3274-3281, 1985), was obtained from the Riken Cell Bank (Tsukuba, Ibaraki, Japan). […] FBS was obtained from American Type Culture Collection (Manassas, Va., USA) and all other reagents were obtained from Invitrogen Corp. (Carlsbad, Calif., USA). Approximately 4-5×10(6) cells that had been cryopreserved in liquid nitrogen were rapidly thawed at 37° C. and transferred to a 175 cm^2 tissue culture flask containing 50 ml of growth media and then incubated at 37° C. in a 5% CO2 incubator.
as §1, with “The” for “FBS was obtained from Sigma-Aldrich Corp. (St. Louis, Mo., USA), and all other reagents were obtained from Invitrogen Corp. (Carlsbad, Calif., USA). Approximately 4-5×10(6) cells that had been cryopreserved in liquid nitrogen were rapidly thawed at 37° C. and transferred to a 175 cm^2 tissue culture flask containing 50 ml of growth media and then incubated at 37° C. in a 5% CO2 incubator. The”, “trypsin-EDTA” for “Trypsin-EDTA”, “1−3×10(6)” for “1-3×10(6)”
Seven to eight week old, female Crl:CD-1-nuBR (nude) mice were obtained from Charles River Laboratories (Wilmington, Mass., USA) Animals were housed 4-5/cage in micro-isolators, with a 12 hr/12 hr light/dark cycle, acclimated for at least 1 week prior to use and fed normal laboratory chow ad libitum. Studies were conducted on animals between 8 and 12 weeks of age at implantation. […] Using a 27 gauge needle and 1 cc syringe, 0.1 ml of the cell suspension was injected subcutaneously into the flank of each nude mouse. Tumor volumes (V) were calculated by caliper measurement of the width (W), length (L) and thickness (T) of tumors using the following formula: V=0.5236×(L×W×T).
In vivo passaged RERF-LC-AI tumor cells (RERF-LC-AI^IVP) were isolated to improve the rate of tumor implantation relative to the parental cell line in nude mice. RERF-LC-AI tumors were permitted to develop in vivo until they reached approximately 250 mm^3 in volume, which required approximately 3 weeks following implantation. Mice were euthanized via CO2 asphyxiation and their exteriors sterilized with 70% ethanol in a laminar flow hood. Using sterile technique, tumors were excised and diced in 50 ml PBS using a scalpel blade. A single cell suspension was prepared using a 55 ml Wheaton Safe-Grind tissue grinder (catalog #62400-358; VWR International, West Chester, Pa., USA) by plunging the pestle up and down 4-5 times without twisting. The suspension was strained through a […] nylon cell strainer and then centrifuged to pellet the cells. The resulting pellet was resuspended in 0.1 M NH4Cl to lyse contaminating red blood cells and then immediately centrifuged to pellet the cells. The cell pellet was resuspended in growth media and seeded into 175 cm^2 flasks containing 50 ml of growth media at 1-3 tumors/flask or approximately 10×10(6) cells/flask. […]

Where [7] appears, read: 200 mg/kg body weight i.p., 5 days per week, 15 doses.

For the compound `CCc1cc(-c2nnc(S)n2-c2cccc3ccccc23)c(O)cc1O` [Compound 49, 3-(2,4-Dihydroxy-5-ethyl-phenyl)-4-(naphthalen-1-yl)-5-mercapto-[1,2,4]triazole], the “Activity in Her2 degradation relative to Compound 108” value in data set [1] is “even more active than Compound 108”. Moreover, the figures for the Her2 degradation entry in data set [1] (0.5 μM), in data set [1] (2 μM) and in data set [1] (5 μM) were “partial degradated”, “complete degradation” and “complete degradation”, respectively. In addition, in data set [2], the “effect on body weights” value is recorded as “lack of an effect on body weights”. In addition, the toxicity entry in data set [2] is “not associated with significant toxicity”. The “growth rate of MDA-MB-435S cells in nude mice” value in data set [2] (compared with 100 mg/kg 17-AAG) is given as “decreased the growth rate of MDA-MB-435S cells in nude mice to a greater extent than did a dose of 100 mg/kg body weight of the Hsp90 inhibitor 17-AAG”.
For the compound `C=CCNC1=C2C[C@@H](C)C[C@H](OC)[C@H](O)[C@@H](C)/C=C(\C)[C@H](OC(N)=O)[C@@H](OC)/C=C\C=C(/C)C(=O)NC(=CC1=O)C2=O` [Compound 17-AAG, 17-allylamino-17-demethoxygeldanamycin, reference compound], the c-kit degradation result in data set [3] (0.5 μM) and in data set [4] (0.5 μM) was “could not induce c-kit degradation” in each case. In addition, the “c-Kit protein levels (Western blot)” value in data set [5] (concentration not given) was “had no effect”. In addition, in data set [6] (75 mg/kg body weight i.p., 5 days per week, 15 doses), the “growth rate of RERF-LC-AI^IVP human lung tumor cells in nude mice” value is listed as “decreased the growth rate”. Further, the “maximum tolerated dose in nude mice” value in data set [6] (i.p., 5 times per week) is recorded as approximately 75 mg/kg body weight.
As to `CC(C)c1cc(-c2nnc(S)n2-c2ccc3c(ccn3C)c2)c(O)cc1O` [Compound 221, 3-(2,4-dihydroxy-5-isopropyl-phenyl)-4-(N-methyl-indol-5-yl)-5-mercapto-[1,2,4]triazole], the c-kit degradation result in data set [3] (0.05 μM), in data set [3] (0.5 μM), in data set [4] (0.05 μM) and in data set [4] (0.5 μM) was “induced c-kit degradation” throughout. The “degradation of c-Kit (Western blot)” value in data set [5] (100 nM) and in data set [5] (400 nM) was “induced the degradation of c-Kit” throughout.
Regarding `CCc1cc(-c2nnc(S)n2-c2ccc(OC)c3c2ccn3C(C)C)c(O)cc1O` [Compound 188, 3-(2,4-Dihydroxy-5-ethyl-phenyl)-4-(1-isopropyl-7-methoxy-indol-4-yl)-5-mercapto-[1,2,4]triazole], the c-kit degradation result in data set [3] (0.05 μM), in data set [3] (0.5 μM), in data set [4] (0.05 μM) and in data set [4] (0.5 μM) was “induced c-kit degradation” each time. Further, the “effect on body weights” value in data set [6] (setting [7]) is reported as “minimal effect on body weights”. The “growth rate of RERF-LC-AI^IVP human lung tumor cells in nude mice” value in data set [6] (setting [7]) is “decreased the growth rate”. The “maximum tolerated dose in nude mice” value in data set [6] (mouse, in vivo, ip) is reported as approximately 200 mg/kg body weight.
